We go through one molecule from patent publication US4022907A, “Pharmaceutical compositions containing 1,3-dithiacycloalkylidene malonates” (Nihon Nohyaku Co. Ltd., priority 1975, dated 1977).

Data set [1] is described as follows: Acute oral toxicity (LD50) to male mice. Particulars: mouse, in vivo. As for the experimental part: For example the LD50 values of the compounds 4, 11 and 17 in Table 1 are more than 5,000 mg/kg. Further, these compounds have no detrimental effects on test animals administered therewith, so far as the doses thereof are within an ordinary administration range.

Data set [2] deals with CCl4-induced hepatotoxicity. Kind of data set: Protection against CCl4-induced hepatotoxicity (mice). Conditions: 250 mg/kg oral, average of 5 to 6 mice. It is filed as in vivo, mice (four-week-old male, dd strain). The text has this:
Carbon tetrachloride (CCl4) administration induces centrilobular necrosis of the liver associated with loss of diphosphopyridine nucleotide, hepatic glycogen, coenzyme A and increase in neutral fat. Release of several enzymes from the hepatocytes, and increase of enzyme activities in the plasma are recognized as the result of the damage of the liver. A suitable means for evaluating the degree of damage induced by CCl4 or the degree of protection afforded by drugs is to study the plasma glutamic-pyruvic transaminase(p-GPT) activity.
Methods: The test compounds were dissolved or suspended in olive oil and administered orally at the dose of 250 mg/kg to the mice (Four-week-old male mice-dd strain). After 6 hours, CCl4 was administered orally (0.05 ml/kg as olive oil solution). Animals were killed 24 hours after CCl4 administration, and the liver was grossly observed. The plasma was obtained by centrifugation. Activities of p-GPT were determined by the method of Reitman and Frankels and expressed in Karmen units. Score for liver damage index was as follows:
Each figure indicates average of 5 to 6 mice. Values of p-GPT over 1,000 Karmen unit regarded as 1,000 for calculation of average for convenience.

Data set [3] deals with thioacetamide-induced hepatotoxicity. The data set is described as follows: Therapeutic effect against thioacetamide-induced hepatotoxicity, BSP test (rats). In kind it is in vivo, rats (Sprague Dawley strain). The procedure:
In the tests of this Example, TAA was repeatedly administered to animals to prepare test animals suffering from somewhat chronic liver damages, and then the present compounds were administered thereto to know whether or not the compounds were effective against chronic hepatitis.
The degree of the liver damage and the therapeutic effects of the compounds were evaluated according to BSP test. The BSP test is a method in which BSP (sulfobromophthalein sodium), a dye known to be quickly metabolized in and excreted from the liver, is intravenously injected into animals and, after a definite period of time, the blood is taken out to measure the amount of BSP remaining in the plasma. In case the animals are suffering from the liver damage, the dye will remain, according to the degree of the damage, at the stage where a major portion of BSP is metabolized and excreted in the case of normal animals. Five groups of rats (Sprague Dawley strain) were treated as follows:
Group A: The rats were orally administered with 100 mg/kg of thioacetamide,at 3 days intervals for 36 days (12 times of the administration), then were submitted for 10 days to a normal diet.
Group B: The rats were orally administered with 100 mg/kg of thioacetamide at 3 days intervals for 36 days (12 times of the administration), then were submitted for 10 days to the normal diet + 0.2% of compound 4.
Group C: The rats were orally administered with 100 mg/kg of thioacetamide at 3 days intervals for 36 days (12 times of the administration) then were submitted for 10 days to the normal diet + 0.2% of compound 2.
Group D: The rats were orally administered with 100 mg/kg of thioacetamide at 3 days intervals for 36 days((12 times of the administration) then were submitted for 10 days to the normal diet + 0.2% of anethol trithion.
Group E: The rats were submitted to the normal diet as the control.
Five rate were sacrificed from each group at appropriate intervals for BSP (sulfobromophthalein) test, the results of which were shown as amounts (mg) of BSP remaining in 1 dl of plasma.

The test system of data set [4] is alcohol metabolic function of liver. Kind of data set: Effect on concentration of ethylalcohol in the blood (mice). It is filed as in vivo. Conditions: 250 mg/kg oral pre-treatment, ethylalcohol 1,000 mg/kg oral after 6 h. The procedure: The test compounds are dissolved or suspended in olive oil and administered orally at the dose of 250 mg/kg to the mice. After 6 hours, 1,000 mg/kg of ethylalcohol was given orally. Blood was taken in a capillary from caudal vein at the time indicated in the results. The plasma was obtained by centrifugation. The concentration of ethylalcohol in the plasma was measured by FID type gas liquid chromatography. Five mice were used for each group.

In data set [5] the test system is glucose metabolic function of liver. The data set is described as follows: Effect on glucose metabolism, blood sugar (mice). It is filed as in vivo. Conditions: 250 mg/kg oral pre-treatment, glucose 4.0 g/kg oral after 6 h. As for the experimental part: Methods: The test compounds dissolved in olive oil and administered orally at the dose of 250 mg/kg to the mice. After 6 hours, 4.0 g/kg of glucose was orally administered. The same amount of glucose was given to the control animals. 0.02 ml of blood was taken from caudal vein of the mice at 30, 60, 90 and 120 min. after glucose administration. Blood sugar was measured by the procedure of SomogyiNelson. Number of animals used was 5 to 6 mice for each treatment.

SMILES strings stand for the structures.

In general, LD50 refers to the dose expected to kill half of the subjects tested. The low end stands for a more toxic substance, the high end for a less toxic substance. Turning to `CC(C)OC(=O)C(C(=O)OC(C)C)=C1SCS1` [Compound 4, Diisopropyl 1,3-dithietan-2-ylidene malonate], the LD50 in data set [1] is > 5000 mg/kg. The molecule also registered a Liver damage index in data set [2] (CCl4 0.05 ml/kg oral after 6 h, 24 h after CCl4, scale 0 Normal, 2 Slightly recognized, 4 Clearly observable damage, 6 Heavy damage, CCl4 alone 5.2, control 0) of 0.0. Also, the p-GPT in data set [2] (plasma, 24 h after CCl4 0.05 ml/kg oral, values over 1,000 regarded as 1,000, CCl4 alone >1,000, control 35) was 20 Karmen units. Moreover, the “BSP remaining in plasma” value in data set [3] (2 days of normal diet + 0.2% compound after 12 TAA administrations, TAA only 12.7±3.7, normal 0.4±0.1) turned out to be 7.1 ± 0.8 mg/dL; in data set [3] (5 days of normal diet + 0.2% compound after 12 TAA administrations, TAA only 8.7±1.9), 3.2 ± 0.6 mg/dL; in data set [3] (10 days of normal diet + 0.2% compound after 12 TAA administrations, TAA only 1.4±0.4, normal 0.6±0.1), 0.6 ± 0.2 mg/dL. The “Concentration of Ethylalcohol in Plasma” value was 10 ± 3 ppm in data set [4] (0 min, control 27 ± 17); 695 ± 122 ppm in data set [4] (5 min, control 875 ± 203); 637 ± 113 ppm in data set [4] (15 min, control 810 ± 191); 410 ± 77 ppm in data set [4] (30 min, control 690 ± 214); 15 ± 8 ppm in data set [4] (60 min, control 167 ± 76). Also, the “Blood Sugar” value in data set [5] (0 min, control 145 ± 11.8) stood at 168 ± 20.4 mg/dL; in data set [5] (30 min, control 311 ± 21.9), 280 ± 10.8 mg/dL; in data set [5] (60 min, control 290 ± 14.6), 215 ± 20.1 mg/dL; in data set [5] (90 min, control 263 ± 13.1), 164 ± 16.5 mg/dL; in data set [5] (120 min, control 251 ± 13.5), 165 ± 15.3 mg/dL.
